In ChEMBL document CHEMBL3611970, “Synthesis and evaluation of isatin-β-thiosemicarbazones as novel agents against antibiotic-resistant Gram-positive bacterial species” (2015):
Values after ≈ are worked out from the molar mass of the structure shown.

Key:
Type in all cases: functional
Staphylococcus aureus [1] = assay: Antimicrobial activity against methicillin-resistant Staphylococcus aureus Chaoyang clinical isolate after 16 hrs by broth microdilution method
Staphylococcus aureus [2] = assay: Antimicrobial activity against Staphylococcus aureus ATCC 6538 after 16 hrs by broth microdilution method; settings: ATCC 6538, 16 h
Bacillus spizizenii = assay: Antimicrobial activity against Bacillus subtilis ATCC 6633 after 16 hrs by broth microdilution method; settings: ATCC 6633, 16 h
Enterococcus faecalis [3] = assay: Antimicrobial activity against vancomycin-susceptible Enterococcus faecalis after 16 hrs by broth microdilution method
Enterococcus faecalis [4] = assay: Antimicrobial activity against Enterococcus faecalis VRE-309 after 16 hrs by broth microdilution method; settings: VRE-309, 16 h
Pseudomonas aeruginosa = assay: Antimicrobial activity against Pseudomonas aeruginosa PAO1 after 16 hrs by broth microdilution method; settings: PAO1, 16 h
Klebsiella pneumoniae = assay: Antimicrobial activity against Klebsiella pneumoniae KP-249 clinical isolate after 16 hrs by broth microdilution method; settings: KP-249, 16 h
Staphylococcus aureus [5] = assay: Antimicrobial activity against methicillin-resistant Staphylococcus aureus 309-4 clinical isolate after 16 hrs by broth microdilution method; settings: 309-4, 16 h
Staphylococcus aureus [6] = assay: Antimicrobial activity against methicillin-resistant Staphylococcus aureus 6281 clinical isolate after 16 hrs by broth microdilution method; settings: Staphylococcus aureus, 6281, 16 h
Staphylococcus aureus [7] = assay: Antimicrobial activity against methicillin-resistant Staphylococcus aureus 309-8 clinical isolate after 16 hrs by broth microdilution method; settings: 309-8, 16 h
Staphylococcus aureus [8] = assay: Antimicrobial activity against methicillin-resistant Staphylococcus aureus 6-42 clinical isolate after 16 hrs by broth microdilution method; settings: 6-42, 16 h
Staphylococcus aureus [9] = assay: Antimicrobial activity against methicillin-resistant Staphylococcus aureus 8-21 clinical isolate after 16 hrs by broth microdilution method; settings: 8-21, 16 h
Staphylococcus aureus [10] = assay: Antimicrobial activity against methicillin-resistant Staphylococcus aureus 309-3 clinical isolate after 16 hrs by broth microdilution method; settings: 309-3, 16 h
Staphylococcus aureus [11] = assay: Antimicrobial activity against methicillin-resistant Staphylococcus aureus 309-1 clinical isolate after 16 hrs by broth microdilution method; settings: 309-1, 16 h
Staphylococcus aureus [12] = assay: Antimicrobial activity against methicillin-resistant Staphylococcus aureus 309-7 clinical isolate after 16 hrs by broth microdilution method; settings: 309-7, 16 h
Staphylococcus aureus [13] = assay: Antimicrobial activity against methicillin-resistant Staphylococcus aureus 8-24 clinical isolate after 16 hrs by broth microdilution method; settings: 8-24, 16 h
Staphylococcus aureus [14] = assay: Antimicrobial activity against methicillin-resistant Staphylococcus aureus 309-6 clinical isolate after 16 hrs by broth microdilution method; settings: 309-6, 16 h

| Structure (SMILES) | MIC (Staphylococcus aureus [1]) | MIC (Staphylococcus aureus [2]) | MIC (Bacillus spizizenii) | MIC (Enterococcus faecalis [3]) | MIC (Enterococcus faecalis [4]) | MIC (Pseudomonas aeruginosa) | MIC (Klebsiella pneumoniae) | MIC (Staphylococcus aureus [5]) | MIC (Staphylococcus aureus [6]) | MIC (Staphylococcus aureus [7]) | MIC (Staphylococcus aureus [8]) | MIC (Staphylococcus aureus [9]) | MIC (Staphylococcus aureus [10]) | MIC (Staphylococcus aureus [11]) | MIC (Staphylococcus aureus [12]) | MIC (Staphylococcus aureus [13]) | MIC (Staphylococcus aureus [14]) |
| --- | --- | --- | --- | --- | --- | --- | --- | --- | --- | --- | --- | --- | --- | --- | --- | --- | --- |
| O=C1Nc2c(Cl)cccc2/C1=N/NC(=S)Nc1ccccc1 | 0.78 µg/mL (≈ 2.36 µM) | 1.56 µg/mL (≈ 4.72 µM) | ≤ 0.78 µg/mL | 6.25 µg/mL (≈ 18.9 µM) | 3.12 µg/mL (≈ 9.43 µM) | > 100 µg/mL | > 100 µg/mL | 1.56 µg/mL (≈ 4.72 µM) | 1.56 µg/mL (≈ 4.72 µM) | 1.56 µg/mL (≈ 4.72 µM) | 3.12 µg/mL (≈ 9.43 µM) | 3.12 µg/mL (≈ 9.43 µM) | 6.25 µg/mL (≈ 18.9 µM) | 6.25 µg/mL (≈ 18.9 µM) | 0.78 µg/mL (≈ 2.36 µM) | 1.56 µg/mL (≈ 4.72 µM) | 6.25 µg/mL (≈ 18.9 µM) |
| O=C1Nc2c(Cl)cccc2/C1=N/NC(=S)Nc1ccc(Cl)cc1 | 0.39 µg/mL (≈ 1.07 µM) | 1.56 µg/mL (≈ 4.27 µM) | ≤ 0.78 µg/mL | 3.12 µg/mL (≈ 8.54 µM) | 1.56 µg/mL (≈ 4.27 µM) | > 100 µg/mL | > 100 µg/mL | 0.78 µg/mL (≈ 2.14 µM) | 1.56 µg/mL (≈ 4.27 µM) | 1.56 µg/mL (≈ 4.27 µM) | 0.78 µg/mL (≈ 2.14 µM) | 0.78 µg/mL (≈ 2.14 µM) | 1.56 µg/mL (≈ 4.27 µM) | 0.78 µg/mL (≈ 2.14 µM) | 0.78 µg/mL (≈ 2.14 µM) | 1.56 µg/mL (≈ 4.27 µM) | 1.56 µg/mL (≈ 4.27 µM) |
| Cc1ccc(NC(=S)N/N=C2\C(=O)Nc3c(Cl)cccc32)cc1 | 0.39 µg/mL (≈ 1.13 µM) | 1.56 µg/mL (≈ 4.52 µM) | ≤ 0.78 µg/mL | 6.25 µg/mL (≈ 18.1 µM) | 3.12 µg/mL (≈ 9.05 µM) | > 100 µg/mL | > 100 µg/mL | 0.78 µg/mL (≈ 2.26 µM) | 1.56 µg/mL (≈ 4.52 µM) | 0.78 µg/mL (≈ 2.26 µM) | 0.78 µg/mL (≈ 2.26 µM) | 0.78 µg/mL (≈ 2.26 µM) | 0.78 µg/mL (≈ 2.26 µM) | 0.78 µg/mL (≈ 2.26 µM) | 0.78 µg/mL (≈ 2.26 µM) | 1.56 µg/mL (≈ 4.52 µM) | 1.56 µg/mL (≈ 4.52 µM) |
| Cc1ccccc1NC(=S)N/N=C1\C(=O)Nc2c(Cl)cccc21 | 0.78 µg/mL (≈ 2.26 µM) | 1.56 µg/mL (≈ 4.52 µM) | ≤ 0.78 µg/mL | 6.25 µg/mL (≈ 18.1 µM) | 3.12 µg/mL (≈ 9.05 µM) | > 100 µg/mL | > 100 µg/mL | 1.56 µg/mL (≈ 4.52 µM) | 1.56 µg/mL (≈ 4.52 µM) | 1.56 µg/mL (≈ 4.52 µM) | 0.78 µg/mL (≈ 2.26 µM) | 0.78 µg/mL (≈ 2.26 µM) | 1.56 µg/mL (≈ 4.52 µM) | 1.56 µg/mL (≈ 4.52 µM) | 0.78 µg/mL (≈ 2.26 µM) | 1.56 µg/mL (≈ 4.52 µM) | 1.56 µg/mL (≈ 4.52 µM) |
| Cc1cccc(NC(=S)N/N=C2\C(=O)Nc3c(Cl)cccc32)c1 | 0.78 µg/mL (≈ 2.26 µM) | 1.56 µg/mL (≈ 4.52 µM) | ≤ 0.78 µg/mL | 6.25 µg/mL (≈ 18.1 µM) | 3.12 µg/mL (≈ 9.05 µM) | > 100 µg/mL | > 100 µg/mL | 1.56 µg/mL (≈ 4.52 µM) | 3.12 µg/mL (≈ 9.05 µM) | 1.56 µg/mL (≈ 4.52 µM) | 0.78 µg/mL (≈ 2.26 µM) | 0.78 µg/mL (≈ 2.26 µM) | 1.56 µg/mL (≈ 4.52 µM) | 0.78 µg/mL (≈ 2.26 µM) | 0.78 µg/mL (≈ 2.26 µM) | 1.56 µg/mL (≈ 4.52 µM) | 1.56 µg/mL (≈ 4.52 µM) |
| O=C1Nc2c(Br)cccc2/C1=N/NC(=S)Nc1ccc(F)cc1 | 0.39 µg/mL (≈ 0.992 µM) | 1.56 µg/mL (≈ 3.97 µM) | ≤ 0.78 µg/mL | 3.12 µg/mL (≈ 7.93 µM) | 1.56 µg/mL (≈ 3.97 µM) | > 100 µg/mL | > 100 µg/mL | 0.78 µg/mL (≈ 1.98 µM) | 1.56 µg/mL (≈ 3.97 µM) | 0.78 µg/mL (≈ 1.98 µM) | 0.78 µg/mL (≈ 1.98 µM) | 0.78 µg/mL (≈ 1.98 µM) | 0.78 µg/mL (≈ 1.98 µM) | 0.78 µg/mL (≈ 1.98 µM) | 0.39 µg/mL (≈ 0.992 µM) | 1.56 µg/mL (≈ 3.97 µM) | 1.56 µg/mL (≈ 3.97 µM) |
